Experimental data: patent US20260257992A1, “AGONISTS OF SMALL HETERODIMER PARTNER FOR CANCER THERAPY” (THE BOARD OF TRUSTEES OF THE UNIVERSITY OF ILLINOIS, priority 2023, published 2026)

What was measured:
RAW 264.7 cells = experiment: Compound uptake assay (LC-MS/MS); format: in vitro ADME; settings: for Intracellular compound concentration, 4 h / Intracellular compound concentration, 8 h / Intracellular compound concentration, 24 h: 50 μM
Description: Conversion of a carboxylic acid to an ester is often associated with better cellular uptake. Therefore, we explored whether the kinetics of uptake differed between the two compounds, using RAW 264.7 cells as a model for myeloid immune cells. RAW 264.7 cells were treated with 50 μM of DSHN or DSHN-OME for 4, 8 or 24 h. At the appropriate time-point cells were washed and subjected to LC-MS/MS to quantify intracellular compound concentration. […] At 8 h, 12.6 nM DSHN was detected.
Compound Uptake Assay. Cellular uptake of DSHN and DSHN-OMe was determined in RAW 264.7 cells cultured in 60×15 mm tissue culture dishes. Cells were treated with vehicle (0.1% DMSO), 50 μM DSHN or 50 μM DSHN-OMe for 4 h, 8 h, or 24 h. After incubation, cells were harvested, washed with PBS and cell pellets were incubated at −80° C. freezer. Next, cell pellets were resuspended in 200 μL 70:30 MeOH:H2O and sonicated to lyse cells. Debris from lysed cell suspension was removed by centrifugation. Resulting supernatant was analyzed by LC-MS/MS.

full length NR0B2 = molecular target: T1, full length NR0B2 (Homo sapiens, UniProt Q15466); experiment: Thermal shift assay with recombinant NR0B2; format: binding; settings: 1 mM ligand, 6 μM purified NR0B2; apo/unliganded 46.74±0.22
T1 construct: A gene containing a hexa-His-TEV fusion with full length NR0B2 in pET21(a)+ was transformed in E. coli BL21(DE3); hexa-His with TEV site; made in house; host or cells: E. coli BL21(DE3)
T1 sequence (Q15466 1-257): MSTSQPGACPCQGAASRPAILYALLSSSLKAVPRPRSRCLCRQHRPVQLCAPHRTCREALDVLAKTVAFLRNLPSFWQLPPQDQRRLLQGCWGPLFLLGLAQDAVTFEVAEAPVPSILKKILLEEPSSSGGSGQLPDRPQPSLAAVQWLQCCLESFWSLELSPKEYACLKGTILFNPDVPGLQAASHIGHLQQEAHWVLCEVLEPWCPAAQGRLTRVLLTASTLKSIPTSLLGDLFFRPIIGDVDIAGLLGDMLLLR
Description: Protein expression, purification, and thermal shift assay. A gene containing a hexa-His-TEV fusion with full length NR0B2 in pET21(a)+ was transformed in E. coli BL21(DE3). A single colony was used to inoculate a 100 mL starter culture of LB broth containing 100 μg/mL ampicillin, which was allowed to grow overnight with shaking at 37° C. This starter culture was used to inoculate flasks containing autoinducing media, which were grown at 37° C. with shaking until they reached an OD^600 of 0.8. Subsequently, the temperature was reduced to 16° C. and cells were allowed to grow for another 24 hours. After harvesting by centrifugation, cells were resuspended at 15 mL/g cell paste in a buffer comprised of 25 mM HEPES pH 8.0, 250 mM NaCl, 20 mM imidazole pH 8.0, 5% glycerol, 0.5 mM TCEP, and Roche EDTA-free protease inhibitor cocktail. Cells were lysed by sonication then centrifuged at 18,000×g for 30 minutes to remove insoluble material. The lysate was loaded onto a gravity flow Ni-NTA column, washed with 5 column volumes (CVs) of resuspension buffer, and protein was eluted using the resuspension buffer supplemented with 500 mM imidazole. Collected protein was dialyzed overnight in the resuspension buffer without imidazole then concentrated and purified on a Superdex 200 HiLoad 200 16/600 size exclusion column. […]

IL1b mRNA = IL1b mRNA reduction in Raw cells; format: cell-based; parameters: key: ✓: using strict cutoffs with respect to DSHN for passing each metric; X: using strict cutoffs with respect to DSHN for passing each metric; settings: pass/fail with respect to DSHN
Description: Development of a more efficacious NR0B2 agonist. While DSHN was a useful proof-of-concept small molecule, macrophages required high doses and chronic exposure for robust influences on subsequent Tregs expansion. […] Therefore, we synthesized several derivatives of DSHN and screened them using a reporter assay which makes use of the endogenous cholesterol homeostatic feedback loop, where FXR activation upregulates NR0B2, which then inhibits LXR and its normal induction of ABCA1. We then followed this screen with several others with stringent cutoffs: effect on endogenous ABCA1 and IL1β expression, reduction of Treg expansion in either macrophage or DC co-cultures, and low cellular toxicity (FIG. 5A, Table 4).

Difference in intracellular concentration, DSHN-OMe versus DSHN (RAW 264.7 cells)	SMILES	Intracellular compound concentration, 4 h (RAW 264.7 cells)	Intracellular compound concentration, 8 h (RAW 264.7 cells)	Intracellular compound concentration, 24 h (RAW 264.7 cells)	NR0B2 thermal melt temperature (TM) (full length NR0B2)	IL1b mRNA reduction (Raw Cells) (IL1b mRNA)
–	CCN(CC)S(=O)(=O)c1cccc2cc(C(=O)O)c(O)cc12 [DSHN, reference compound]	below detection limits	12.6 nM	no intracellular DSHN was detected	46.34±0.51 °C	–
> 2 log	CCN(CC)S(=O)(=O)c1cccc2cc(C(=O)OC)c(O)cc12 [DSHN-OMe, Methyl 5-(N,N-diethylsulfamoyl)-3-hydroxy-2-naphthoate]	7,481 nM	19,279 nM	11,089 nM	46.92±0.17 °C	✓
